Assay results from patent US7700608B2, “Quinazoline derivatives and their use in the treatment of thrombocythemia” (Shire Holdings AG, priority 2004, dated 2010).

Tests used:
[1] = test system: non-megakaryocytic cells (CD61-); experiment: Growth of non-megakaryocytic (CD61-) cells in the TPO-stimulated CD34+ cultures; type: cell-based; conditions: 12-day cultures, FIG. 2
Procedure: (§1) Cell culture and drug regimes. Cord blood CD34+ cells were purchased from Biowhittacker USA or were freshly isolated by immunomagnetic selection using standard laboratory procedures. Cells were seeded in 24-well tissue culture plates at a density of 0.15×10^6 cells/ml and cultured for 12-14 days in Iscove's modified Dulbecco's medium containing 40 ng/ml TPO (as described in Mathur A, Hong Y. Martin J F, Erusalimsky J D (2001) Megakaryocytic differentiation is accompanied by a reduction in cell migratory potential. Br J Haematol 112:459) with anagrelide, Compound #1, or vehicle (DMSO).
(§2) Cell counting. Cell density was determined using a Sysmex CDA-500 Particle Analyzer.
(§3) Analysis of megakaryocytic differentiation. CD61 expression (a marker of megakaryocytic differentiation) was quantified by flow cytometry using an anti-GPIIIa antibody. Cell diameter was determined using a Sysmex CDA-500 Particle Analyzer.
To assess whether the inhibitory activities of anagrelide and Compound #1 in these cultures were selective for the megakaryocytic lineage, the effects of these compounds were evaluated on the growth of the non-megakaryocytic cells. In 12-day control cultures these cells (CD61-) represent 20-30% of the total population.

Cord blood CD34+ cells = experiment: TPO-induced megakaryocytic maturation/differentiation of cord blood CD34+ cells in culture; type: cell-based; conditions: for inhibition at 0.03 µM: 30 nM, CD34+ cells grown with TPO in plasma-containing medium, vs. control, read-out: inhibition of megakaryocytic maturation (percentage of GPIIIa positive cells); for Cell expansion % of control / GPIIIa expression median fluorescence % of control / GPIIIa positive cells % of control / Relative cell size % of control: 1.0 μM, 12 days, plasma-containing medium with TPO, mean ± SE, n = 4; for concentration giving maximal effect on megakaryocyte maturation / IC50: TPO-induced maturation, FIG. 1; for IC50: mean of 2-4 independent experiments, read-out: IC50 against megakaryocyte maturation
Procedure: Chemicals. Compound #1 was kept at room temperature. Stock solutions (10 mM) were made in DMSO, or PBS pH 5. 0, as indicated. Stock solutions were diluted in culture medium immediately before addition to cell suspensions.
as §1, §2, §3

Question: What does the source list for `O=C1CN2Cc3c(ccc(Cl)c3Cl)N=C2N1` [Anagrelide]?
Answer: effect on growth of non-megakaryocytic cells (selectivity for megakaryocytic lineage) [1]: neither anagrelide nor Compound #1 inhibited the growth of non-megakaryocytic cells; inhibition at 0.03 µM (Cord blood CD34+ cells): 28%; Cell expansion % of control (Cord blood CD34+ cells): 48.0 ± 4.0 % of control; GPIIIa expression median fluorescence % of control (Cord blood CD34+ cells): 51.3 ± 11.9 % of control; GPIIIa positive cells % of control (Cord blood CD34+ cells): 41.9 ± 6.6 % of control; Relative cell size % of control (Cord blood CD34+ cells): 80.4 ± 4.5 % of control; concentration giving maximal effect on megakaryocyte maturation (Cord blood CD34+ cells): 1 µM; IC50 (Cord blood CD34+ cells): 110 to 130 nM

Question: Which results are given for `O=CC(=O)NC1=Nc2ccc(Cl)c(Cl)c2CN1` [Compound #1, N-(5,6-dichloro-3,4-dihydroquinazolin-2-yl)-2-oxoacetamide]?
Answer: effect on growth of non-megakaryocytic cells (selectivity for megakaryocytic lineage) [1]: neither anagrelide nor Compound #1 inhibited the growth of non-megakaryocytic cells; inhibition at 0.03 µM (Cord blood CD34+ cells): 20%; Cell expansion % of control (Cord blood CD34+ cells): 45.8 ± 3.9 % of control; GPIIIa expression median fluorescence % of control (Cord blood CD34+ cells): 54.4 ± 14.7 % of control; GPIIIa positive cells % of control (Cord blood CD34+ cells): 34.5 ± 4.4 % of control; Relative cell size % of control (Cord blood CD34+ cells): 78.7 ± 5.3 % of control; concentration giving maximal effect on megakaryocyte maturation (Cord blood CD34+ cells): 1 µM; IC50 (Cord blood CD34+ cells): 110 to 130 nM
